Laboratory results taken from patent USRE47078E1, “Polymorphic forms of N-[4-(trifluoromethyl)benzyl]-4-methoxybutyramide” (Laboratorio Farmaceutico C.T. S.R.L., priority 2007, dated 2018).
Entries after “also recorded” stand apart in the source; their conditions may differ.

Tests used:
rats [1] = assay: Hexobarbital sleeping time in rats; assay type: in vivo, rat
Description: (§1) The possible adverse effects of polymorphic Form A on the CNS, cardiovascular, respiratory and immune functions were evaluated in vitro and in vivo (rats and dogs) in different experimental models. In the in vivo tests, the tested compound was always given by single oral administration at the doses of 100, 300 and 1000 mg/kg.
The test consists in the measurement of the duration of hexobarbital-induced sleep; substances with a sedative or antisleep action cause increase or decrease respectively in the duration of hexobarbital induced sleep.

conscious dogs = assay: Cardiovascular evaluation in conscious dogs (telemetry); assay type: in vivo, dog
Description: as §1
Any possible effect of polymorphic Form A administered at the doses of 100, 300 and 1000 mg/kg by oral route on blood pressure, heart rate and electrocardiogram was evaluated in conscious dogs, free to move about, previously instrumented with telemetric transmitters. In the first part of the study, only telemetric measurements were recorded; the recording of the parameters started at least 24 hours before the administration of the compound and were continued for 24 hours following dosing. In the second part, only the highest dose of 1000 mg/kg was administered and complementary investigations such as 6-lead electrocardiogram (leads I, II, III, aVL, aVR and aVF), blood sampling and observation of the animals were performed before treatment and 3 hours post-treatment.

Rat (Bone marrow Cells) = assay: Micronucleus test in rat bone marrow; assay type: in vivo; conditions: os, single, 500-2000 mg/kg, 24 and 48 hours
Description: Any clastogenic or spindle poison activity of polymorphic Form A was investigated by detecting micronucleated polychromatic erythrocytes in the bone marrow of treated rats. The study was conducted in compliance with the EC Guidelines. The method involved searching for the presence of a chromosome fragment, or a number of chromosomes, resulting from a deletion or a mitotic spindle poison effect, in the polychromatic erythrocytes in the bone marrow. Clastogenic products may produce, at the moment of mitosis, chromosome breakage, while spindle poisons disturb the structure of the mitotic spindles. An acentric fragment of a chromosome that has not migrated normally is not retained in the nucleus of the daughter cell, and appears in the cytoplasm. It is then known as a Howell-Jolly body or micronucleus. The micronucleus can be detected in polychromatic erythrocytes, as these cells expel their main nucleus shortly after the last mitosis and the micronucleus remains in the red blood cells. Male and female Sprague Dawley rats were treated orally once with 2000-1000-500 mg/kg of polymorphic Form A and 24 and 48 hours after the treatment their femurs were sampled and bone marrow cells were extracted.

[2] = tested on: Sardinian Alcohol preferring rats (sP); assay: Alcohol Deprivation Effect in deprived sP rats; assay type: in vivo, rat
Description: Tests were carried out in Sardinian Alcohol preferring rats (sP), i.e. a rodent line genetically selected for their spontaneous alcohol consume. These animals were adopted as the main specific animal model in the research program due to the fact that these rats (kept in a free-choice regimen between water and a 10% ethanol solution) consume large amounts of alcohol (6-7 g/Kg/day), sharing a great preference for […] (80-100%).
Under the standard, these rats are subjected to homecage two-bottle free choice regimen between 10% alcohol and water with unlimited access (24 h/day) and they show these features: daily intake of about 6 g/Kg of alcohol; preference ratio (alcohol solution vs total fluids) above 80%; fractioning of daily alcohol intake in 3-4 binges; achievement of BALs (Blood Alcohol Levels) above 50 mg % at each binge; induction of pharmaceutical effects (anxiolysis, motor stimulation) and regulation by a central, hedonic set-point mechanism.
2. Alcohol Deprivation Effect in Deprived sP Rats
To further characterize the anti-alcohol effect of polymorphic Form A, this compound was evaluated on the Alcohol Deprivation Effect (ADE). […] Intake was measured 1 hour after lights off.

HERG tail current = target: T1, HERG tail current (Homo sapiens, UniProt Q12809); assay: HERG tail current, patch clamp in HEK-293 cells; assay type: cell-based
T1 construct: expressed in transfected cells; host or cells: HEK-293
From the text: A possible blocking effect of polymorphic Form A on Herg tail current recorded from HEK-293 cells (Human Embryonic Kidney cells) stably transfected with HERGG-1 cDNA was investigated. The method consisted in measuring the HERG tail current by using the patch clamp techniques in the whole cell configuration. Compounds which inhibited HERG current were recognized to prolong the cardiac action potential and increase QT interval.

rats [3] = assay: Proconvulsant activity in rats (pentylenetetrazol); assay type: in vivo, rat; conditions: with pentylenetetrazol
Description: as §1

T1 sequence (Q12809 whole entry): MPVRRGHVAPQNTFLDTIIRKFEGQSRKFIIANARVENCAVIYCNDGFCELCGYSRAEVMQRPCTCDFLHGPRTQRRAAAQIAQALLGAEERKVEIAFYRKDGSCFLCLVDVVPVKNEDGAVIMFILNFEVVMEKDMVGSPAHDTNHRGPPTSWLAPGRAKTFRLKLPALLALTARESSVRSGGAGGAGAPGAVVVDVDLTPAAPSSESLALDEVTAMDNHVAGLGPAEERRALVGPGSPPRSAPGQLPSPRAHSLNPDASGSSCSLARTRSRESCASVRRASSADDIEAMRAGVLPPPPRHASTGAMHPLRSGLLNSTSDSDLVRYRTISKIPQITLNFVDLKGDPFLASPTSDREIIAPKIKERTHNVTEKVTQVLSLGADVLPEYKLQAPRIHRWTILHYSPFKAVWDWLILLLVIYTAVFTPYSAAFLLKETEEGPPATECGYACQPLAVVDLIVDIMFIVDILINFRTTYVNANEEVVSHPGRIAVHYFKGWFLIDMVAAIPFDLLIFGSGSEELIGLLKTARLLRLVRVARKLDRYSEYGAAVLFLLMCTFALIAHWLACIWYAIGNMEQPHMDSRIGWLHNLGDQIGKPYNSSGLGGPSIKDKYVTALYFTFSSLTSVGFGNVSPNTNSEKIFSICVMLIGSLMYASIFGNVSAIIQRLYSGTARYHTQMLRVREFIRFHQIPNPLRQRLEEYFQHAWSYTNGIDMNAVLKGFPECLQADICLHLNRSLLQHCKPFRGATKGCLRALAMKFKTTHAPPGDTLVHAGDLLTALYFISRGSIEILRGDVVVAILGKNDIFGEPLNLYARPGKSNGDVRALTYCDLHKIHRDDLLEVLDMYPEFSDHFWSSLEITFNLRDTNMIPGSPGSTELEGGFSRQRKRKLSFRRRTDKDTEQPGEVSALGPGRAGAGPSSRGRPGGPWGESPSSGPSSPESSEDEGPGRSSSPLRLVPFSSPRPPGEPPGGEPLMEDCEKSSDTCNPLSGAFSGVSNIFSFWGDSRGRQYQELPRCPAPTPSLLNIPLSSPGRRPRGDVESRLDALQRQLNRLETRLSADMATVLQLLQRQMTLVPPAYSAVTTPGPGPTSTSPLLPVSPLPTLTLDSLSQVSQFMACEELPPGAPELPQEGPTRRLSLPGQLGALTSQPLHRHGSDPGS

SMILES: COCCCC(=O)NCc1ccc(C(F)(F)F)cc1 [Polymorphic Form A, N-[4-(trifluoromethyl)benzyl]-4-methoxybutyramide]
- Time taken to fall asleep and duration of the sleep (rats [1]; highest dose (1000 mg/kg) oral): significant decrease of the time taken to fall asleep and of the duration of the sleep
- Sleep duration (rats [1]; intermediate dose (300 mg/kg) oral): slight decrease in sleep duration
- Time taken to fall asleep and duration of the sleep (rats [1]; lowest dose (100 mg/kg) oral): No statistical significant effect
- Blood pressure, heart rate and electrocardiogram tracing (conscious dogs; 100 mg/kg oral): did not induce relevant changes
- Presence in plasma (conscious dogs; 1000 mg/kg oral, 3 hours after the administration): confirmed the presence
- 6-lead electrocardiogram (conscious dogs; 1000 mg/kg oral, before and 3 hours after dosing): No disturbance in the 6-lead electrocardiogram
- Vomiting (conscious dogs; 1000 mg/kg oral, between 0.5 and 17 hours after dosing): All animals vomited
- Arterial blood pressure (mean, systolic and diastolic) (conscious dogs; 300 and 1000 mg/kg oral): slight increase in arterial blood pressure
- PR and PQ interval durations (conscious dogs; 300 and 1000 mg/kg oral): slight decrease in PR and PQ interval durations
- QT interval duration corrected for heart rate (Sarma's method) (conscious dogs; 300 and 1000 mg/kg oral): slight increase in QT interval duration
- Electrocardiogram (lead II), T wave morphology (conscious dogs; all the doses tested): No disturbance in the electrocardiogram (lead II)
- Genotoxicity, Micronucleus test result (Rat (Bone marrow Cells)): no clastogenic activity; also recorded: Negative
- Extra-consume of alcohol (ADE) ([2]; 5 mg/Kg): completely abolish the extra-consume of alcohol
- Alcohol Deprivation Effect (ADE) ([2]; dose range 5-100 mg/Kg, given 30 min before lights off, intake 1 hour after lights off): completely suppressed ADE effect
- Reduction of HERG tail current (HERG tail current; 10^−4 M, highest concentration tested): about 50%
- Inhibition of HERG tail current (HERG tail current; 10^−6 and 10^−5 M): slight and non dose-dependent decrease
- Inhibition of HERG tail current (HERG tail current; 10^−7 M): no statistically significant inhibition
- Inhibition of HERG tail current, highest value reached (HERG tail current; all concentrations, 70% is the threshold for an active compound): < 70%
- Time of occurrence of seizures (rats [3]; 100 and 300 mg/kg oral): increase in the time of occurrence of seizures
- Proconvulsant effect (rats [3]; all the doses (100, 300, 1000 mg/kg oral)): no statistical significant proconvulsant effect
